Key:
Assay in all cases: Example B2 herbicidal action, post-emergence, pots in glasshouse, damage score 0-10
Format in all cases: in vivo
Conditions in all cases: application post-emergence, rate 1000 g/ha, evaluated after 13 days
Solanum nigrum = system: Solanum nigrum
Procedure, shortened: (§1)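 Damage was assessed 13 days after a post-emergence spray given to 8-day-old pot seedlings. The spray was an aqueous solution from an acetone/water (50:50) formulation with 0.5% Tween 20. Plants grew in a glasshouse at 24/16° C, 14 h light, 65% humidity, watered twice daily.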

Amaranthus retroflexus = system: Amaranthus retroflexus
Procedure, shortened: as §1

Echinochloa crus-galli = system: Echinochloa crus-galli
Procedure, shortened: as §1

Setaria faberi = system: Setaria faberi
Procedure, shortened: as §1

Ipomea hederaceae = system: Ipomea hederaceae
Procedure, shortened: as §1

Structure (SMILES)	SOLNI damage score (10=total damage to plant; 0=no damage to plant) (Solanum nigrum)	AMARE damage score (10=total damage to plant; 0=no damage to plant) (Amaranthus retroflexus)	ECHCG damage score (10=total damage to plant; 0=no damage to plant) (Echinochloa crus-galli)	SETFA damage score (10=total damage to plant; 0=no damage to plant) (Setaria faberi)	IPOHE damage score (10=total damage to plant; 0=no damage to plant) (Ipomea hederaceae)
CC#CCN1c2nccnc2C(O)=C(c2c(Cl)ccc(Cl)c2C(F)(F)F)S1(=O)=O [Compound D48]	8	3	0	0	7
CCN1c2nccnc2C(OC(=O)C(C)C)=C(c2cc(Cl)ccc2C(F)(F)F)S1(=O)=O [Compound C110]	8	9	5	4	8
CCN1c2nccnc2C(O)=C(c2c(F)cccc2C(F)(F)F)S1(=O)=O [Compound D21]	9	8	6	6	9
CCN1c2nccnc2C(O)=C(c2c(Cl)ccc(Cl)c2Cl)S1(=O)=O [Compound D36]	10	10	6	2	10
O=S1(=O)C(c2cc(Cl)ccc2C(F)(F)F)=C(O)c2nccnc2N1CC(F)F [Compound D53]	10	8	6	6	7
O=S1(=O)C(c2c(Cl)ccc(Cl)c2C(F)(F)F)=C(O)c2nccnc2N1CC(F)F [Compound D27]	8	9	7	8	7
CC(C)C(=O)OC1=C(c2ccc(Br)cc2C(F)(F)F)S(=O)(=O)N(CC(F)F)c2nccnc21 [Compound C132]	10	10	6	7	10
O=S1(=O)C(c2cc(C(F)(F)F)ccc2Cl)=C(O)c2c(ncc[n+]2[O-])N1CC(F)F [Compound E1, 3-(2-chloro-5-trifluoromethyl-phenyl)-1-(2,2-difluoro-ethyl)-2,2-dioxo-5-oxy-1,2-dihydro-2-λ-6-thia-1,5,8-triaza-naphthalen-4-ol]	9	4	3	1	7
O=S1(=O)C(c2cc(C(F)(F)F)ccc2Br)=C(O)c2nccnc2N1CC(F)F [Compound D30]	10	10	6	3	10
CCSC(=O)OC1=C(c2cc(C(F)(F)F)ccc2Br)S(=O)(=O)N(CC(F)F)c2nccnc21 [Compound C60]	10	10	7	1	10
O=S1(=O)C(c2ccccc2Br)=C(O)c2nccnc2N1CC(F)F [Compound D18]	10	10	4	5	10
CCN1c2nccnc2C(OC(=O)C(C)(C)C)=C(c2c(F)ccc(Cl)c2Cl)S1(=O)=O [Compound C16]	10	7	3	0	7
CC(C)C(=O)OC1=C(c2cccc(Cl)c2Cl)S(=O)(=O)N(CC(F)F)c2nccnc21 [Compound C102]	7	1	0	0	6
O=C(OC1=C(c2c(Cl)cccc2C(F)(F)F)S(=O)(=O)N(CC(F)F)c2nccnc21)Sc1ccccc1 [Compound C125]	9	9	8	8	8
O=S1(=O)C(c2ccc(Br)cc2C(F)(F)F)=C(O)c2nccnc2N1CC(F)F [Compound D56]	9	10	7	6	10
CCSC(=O)OC1=C(c2cc(F)c(Cl)cc2Cl)S(=O)(=O)N(CC(F)F)c2nccnc21 [Compound C88]	9	9	6	4	9
CC(C)C(=O)OC1=C(c2ccccc2Br)S(=O)(=O)N(CC(F)F)c2nccnc21 [Compound C39]	10	9	4	4	9
COc1ccc(Cl)c(C2=C(O)c3nccnc3N(CC(F)F)S2(=O)=O)c1F [Compound D60]	7	1	4	2	8
CSC(=O)OC1=C(c2ccc(C(F)(F)F)cc2C(F)(F)F)S(=O)(=O)N(CC(F)F)c2nccnc21 [Compound C131]	10	9	4	2	9
O=S1(=O)C(c2c(C(F)(F)F)cccc2C(F)(F)F)=C(O)c2nccnc2N1CC(F)F [Compound D42]	8	7	4	7	9
CC(C)C(=O)OC1=C(c2ccccc2[N+](=O)[O-])S(=O)(=O)N(CC(F)F)c2nccnc21 [Compound C65]	2	2	0	2	1
CC(C)(C)C(=O)OC1=C(c2cccc(C(F)(F)F)c2Cl)S(=O)(=O)N(CC(F)F)c2nccnc21 [Compound C74]	6	7	4	3	7
CCN1c2nccnc2C(OC(=O)C(C)C)=C(c2cc(I)ccc2Cl)S1(=O)=O [Compound C51]	7	5	1	0	6
C#CCN1c2nccnc2C(OC(=O)SCC)=C(c2c(Cl)ccc(Cl)c2C(F)(F)F)S1(=O)=O [Compound C85]	10	7	7	6	9
CC(C)(C)C(=O)OC1=C(c2c(F)ccc(Br)c2Cl)S(=O)(=O)N(CC(F)F)c2nccnc21 [Compound C35]	10	10	7	7	10
CC(C)(C)C(=O)OC1=C(c2cc(Cl)ccc2C(F)(F)F)S(=O)(=O)N(CC(F)F)c2nccnc21 [Compound C111]	9	8	6	6	9

From patent publication US8133849B2, “Herbicidal compounds” (Syngenta Limited, priority 2007, dated 2012)
